US11013714B2, “Use of homoeriodictyol (HED) for reducing the gastric acid secretion-stimulating effect of n-acetyl-4-aminophenol (Paracetamol)” (SYMRISE AG, priority 2016, dated 2021)
Values joined by “and” are separate entries in the source; they are usually repeats but may differ in a detail not shown here. Equal entries are not always repeated. Where two headings read alike, the source gives them in different places. Blank lines part the entries; values can stand above or below the molecule they belong to.

Key:
[1] = test system: HGT-1 cells; conditions: cited from earlier work
[2] = molecular target: T1, TAS2R39 (Homo sapiens, UniProt P59534); conditions: Roland et al., J. Agric. Food Chem. 2013; cited from earlier work
T1 sequence (P59534 1-338): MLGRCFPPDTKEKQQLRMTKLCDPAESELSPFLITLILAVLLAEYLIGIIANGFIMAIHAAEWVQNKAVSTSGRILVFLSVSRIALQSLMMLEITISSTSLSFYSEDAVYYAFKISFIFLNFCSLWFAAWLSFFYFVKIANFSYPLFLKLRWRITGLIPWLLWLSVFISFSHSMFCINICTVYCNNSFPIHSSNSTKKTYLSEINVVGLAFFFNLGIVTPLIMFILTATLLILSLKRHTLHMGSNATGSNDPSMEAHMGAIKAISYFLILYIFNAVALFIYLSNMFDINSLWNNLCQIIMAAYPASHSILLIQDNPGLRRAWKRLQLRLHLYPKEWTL

[3] = test system: HGT-1 cells; assay: Proton secretion in HGT-1 cells (intracellular pH, SNARF-1-AM dye); type: cell-based, human
Procedure: Human parietal cells (human gastric tumour cell line, HGT-1) were used as cellular model. These were provided by Dr. C. Laboisse (Laboratory of Pathological Anatomy, Nantes, France). The cells are cultured at standard conditions at 37° C., 5% CO2 in DMEM (Dulbecco's Modified […] Medium) with 4 g/L glucose, 10% FBS, 2% L-glutamine and 1% Penicillin/Streptomycin. For measuring the intracellular proton concentration, the cells are treated with Trypsin/EDTA, the cellular viability was determined with Trypan blue staining and 100 000 cells/well were seeded in black 96-well plates. […] The cells in the 96-well plates are washed once with Krebs-Hepes-buffer (KRHP) and incubated with the dye in a concentration of 3 μM dissolved in KRHP for 30 min at 37° C. and 5% CO2. Afterwards, the cells are washed twice with KRHP and substances stimulating gastric acid secretion, as for example 3 mM caffeine, 0.3 mM Theobromine or 3 mM Paracetamol alone or in combination with substances for reducing the gastric acid stimulating effect of the above substances, for example Homoeriodictyol (HED), in various concentrations in phenol red free DMEM in a volume of 100 μL were added; as a further control, the substances stimulating gastric acid secretion as named above were tested alone. Homoeriodictyol is dissolved in double distilled water. The final concentration of solvent, which is added to the cells, is at most 1%. The fluorescent dye is excited at the wave length of 488 nm and the emission is measured at 580 nm and 640 nm. […] For the calibration curve, the cells are treated with a potassium buffer in different pH values of from 7.2 to 8.2 and 2 μM Nigericin. Nigericin equilibrates the intracellular and extracellular pH value so that the intracellular pH value can be defined. The intracellular H^+-concentration is obtained from the intracellular pH value. The intracellular proton index (IPX) is calculated by log 2 transformation of the ratio of treated cells and untreated cells (control) ([…].; Somoza, M. M.; Hofmann, T.; Somoza, V., Mol Nutr Food Res 2012, 56, 325-335; Rubach, M.; Lang, R.; Hofmann, T.; Somoza, V., Ann N Y Acad Sci 2008, 1126, 310-4; […].; Hofmann, T.; Somoza, V., J Agric Food Chem 2010, 58, 4153-61; Weiss, […].; Blumberg, S.; Frank, O.; Hofmann, T.; Somoza, V., J Agric Food Chem 2010, 58, 1976-85; Liszt, K. I.; Walker, J.; Somoza, V., J Agric Food Chem 2012, 60, 7022-7030; Walker, J.; Hell, J.; Liszt, […].; Hofmann, T.; Somoza, V., J Agric Food Chem 2012, 60, 1405-12). The number of indicated replicates relates to technical replicates (tr) or the number of total replicates (n), which results from the number of technical replicates multiplied with the number of biological replicates. […] Statistics: one-way Anova with Holm-Sidak post-hoc test. Significant differences (p<0.05) are indicated by letters.

[4] = molecular target: T2, TAS2R43 (Homo sapiens, UniProt P59537); assay: Own experiments on bitter receptor TAS2R43
T2 sequence (P59537 1-309): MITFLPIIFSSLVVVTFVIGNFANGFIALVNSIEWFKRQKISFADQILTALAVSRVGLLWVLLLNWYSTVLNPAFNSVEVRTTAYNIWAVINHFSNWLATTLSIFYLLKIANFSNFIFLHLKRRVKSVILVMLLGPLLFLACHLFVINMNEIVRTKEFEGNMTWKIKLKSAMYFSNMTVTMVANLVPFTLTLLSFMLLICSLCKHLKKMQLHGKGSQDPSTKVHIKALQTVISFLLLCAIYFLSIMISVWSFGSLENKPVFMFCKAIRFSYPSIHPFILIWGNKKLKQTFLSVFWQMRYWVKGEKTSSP

Compound: Cn1c(=O)c2c(ncn2C)n(C)c1=O [Caffeine, caffeine, reference compound]
- percentage increase (positive values) or decrease (negative values) of the proton secretion, mean ([1]; 3 mM caffeine alone (DMEM), 10 minutes stimulation): 54.80%
- percentage increase (positive values) or decrease (negative values) of the proton secretion, mean ([1]; 3 mM caffeine alone (DMEM), 10 minutes stimulation, listed as caffeine): 55%

- effect at receptor type TAS2R43 [4]: antagonist
Compound: COc1cc(C2CC(=O)c3c(O)cc(O)cc3O2)ccc1O (centres unmarked) [HED, 3′-Methoxy-4′,5,7-trihydroxy flavanone]
- effect at receptor type TAS2R39 [2]: agonist
- percentage increase (positive values) or decrease (negative values) of the proton secretion, mean ([3]; 3 mM Paracetamol + 0.003 mM HED, 10 minutes): 10.96%
- percentage increase (positive values) or decrease (negative values) of the proton secretion, mean ([3]; 3 mM Paracetamol + 0.03 mM HED, 10 minutes): 7% and 6.57%
- percentage increase (positive values) or decrease (negative values) of the proton secretion, mean ([3]; 3 mM Paracetamol + 0.3 mM HED, 10 minutes): −46.24%
- effect on constitutive acid secretion ([3]; 3 mM Paracetamol, addition of 0.3 mM HED, compared to control without active substances): significant reduction of the constitutive acid secretion
- proton secretion induced by 3 mM Paracetamol ([3]; addition of 0.003 or 0.03 mM HED): reduced
- proton secretion increased by ([3]; simultaneous incubation with 3 mM Paracetamol and 0.003 mM HED): 11%
- proton secretion reduced by ([3]; simultaneous incubation with 3 mM Paracetamol and 0.3 mM HED): 46%
- percentage increase (positive values) or decrease (negative values) of the proton secretion, mean ([1]; 0.3 mM Theobromine + 0.003 mM HED, 10 minutes): 21.56%
- percentage increase (positive values) or decrease (negative values) of the proton secretion, mean ([1]; 0.3 mM Theobromine + 0.03 mM HED, 10 minutes): 14% and 13.79%
- percentage increase (positive values) or decrease (negative values) of the proton secretion, mean ([1]; 0.3 mM Theobromine + 0.3 mM HED, 10 minutes): −16.92%
- percentage increase (positive values) or decrease (negative values) of the proton secretion, mean ([1]; 3 mM caffeine + 0.03 mM HED, 10 minutes): 38%
- percentage increase (positive values) or decrease (negative values) of the proton secretion, mean ([1]; 3 mM caffeine + 0.3 mM HED, 10 minutes): 20% and 20.20%
- proton secretion decreased by ([1]; simultaneous incubation with 0.3 mM Theobromine and 0.3 mM HED): 17%
- effect on the proton secretion in HGT-1-cells ([1]; sole HED, without gastric acid secretion-stimulating substances (WO 2014111436 A1)): no significant effect

Compound: CC(=O)Nc1ccc(O)cc1 [Paracetamol, N-(4-Hydroxyphenyl)acetamide]
- percentage increase (positive values) or decrease (negative values) of the proton secretion, mean ([3]; 3 mM Paracetamol alone (DMEM), 10 minutes stimulation): 24% and 24.10%

Compound: Cn1cnc2c1c(=O)[nH]c(=O)n2C [Theobromine, reference compound]
- percentage increase (positive values) or decrease (negative values) of the proton secretion, mean ([1]; 0.3 mM Theobromine alone (DMEM), 10 minutes stimulation): 21% and 20.92%
